Experimental data from US20210087496A1, “Non-Enzymatic Removal Of Proteinaceous Soils” (Henkel AG & Co. KGaA, priority 2019, published 2021).
Like-named read-outs stand apart in the source and are kept apart here.

Biological target: T1, Maillard product of lactose and albumin from chicken egg (band at ~50-55 kDa) (Gallus gallus, UniProt P01012)
T1 sequence (P01012 1-386): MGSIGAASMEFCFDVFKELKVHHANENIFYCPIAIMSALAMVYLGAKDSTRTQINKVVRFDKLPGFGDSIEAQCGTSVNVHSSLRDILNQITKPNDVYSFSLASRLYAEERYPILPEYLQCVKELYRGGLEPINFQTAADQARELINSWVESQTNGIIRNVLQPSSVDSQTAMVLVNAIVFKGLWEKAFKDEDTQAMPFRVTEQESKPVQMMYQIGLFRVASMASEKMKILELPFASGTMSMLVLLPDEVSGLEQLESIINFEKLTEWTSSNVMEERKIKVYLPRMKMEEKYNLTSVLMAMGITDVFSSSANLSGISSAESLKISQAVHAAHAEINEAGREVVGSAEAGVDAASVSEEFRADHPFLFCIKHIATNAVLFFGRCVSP
Conditions: complex 0.2 mM, Maillard product 3 g/l, 60° C., pH 9.5
Method: A mixture of lactose and albumin from chicken egg, approx. 45 000 g/mol, in a weight ratio of 3:1 was dissolved in de-salinated water and stirred for 30 min at room temperature. The resulting solution was lyophilized using a commercial lab lyophilizer (Christ; Gamma 1-20) and homogenized. 0.5 g of the resulting powder was heated to 140° C. for 20 min and was then allowed to cool to room temperature. […] An aqueous solution of the Maillard product (3 g/l) was incubated at 60° C. at pH 9.5 (hydrogen carbonate/carbonate buffer) with the complexes of examples 1 and 2 at the concentrations and for amounts of time given in table 1. The progress of protein degradation was followed by SDS page gel analysis. The intensity value of the band at ˜50-55 kDa at time t=0, that is before the start of incubation, is set to 1.

For `O=C1CN2CCN3CC(=O)[O][Zr]([O]1)([O]c1ccccc1C2)[O]c1ccccc1C3` [Complex K1], the “Intensity of the band at ~50-55 kDa” value (t = 0 h (before start of incubation, set to 1)) was 1, the “Intensity of the band at ~50-55 kDa” value (t = 1 h, relative to t=0 set to 1) was 0.91 and the “Intensity of the band at ~50-55 kDa” value (t = 2 h, relative to t=0 set to 1) was 0.83.
